Converted amounts (≈) assume the structure as drawn. Some results are limits rather than exact numbers.

As a reminder, the MIC90 is an inhibitory concentration at the 90% level, which refers to growth in some studies and to a panel of isolates in others.

What all share (assay type): functional
Test [1] relates to Mycobacterium tuberculosis. Nature of the test: Antitubercular activity against Rifampicin-resistant Mycobacterium tuberculosis assessed as parasite growth inhibition by REMA method.
In test [2] the test system is Mycobacterium tuberculosis. Nature of the test: Antitubercular activity against Isoniazid-resistant Mycobacterium tuberculosis assessed as parasite growth inhibition by REMA method.
In test [3] the test system is Mycobacterium tuberculosis. Nature of the test: Antitubercular activity against multidrug-resistant Mycobacterium tuberculosis assessed as parasite growth inhibition by REMA method.
The subject of test [4] is Mycobacterium tuberculosis. Nature of the test: Ratio of isoniazid IC50 to compound IC50 for Isoniazid-resistant Mycobacterium tuberculosis by REMA method.

`O=C1NC(c2c[nH]c3ccc(Br)cc23)Nc2ccccc21` (stereo not drawn): the MIC90 in test [1] was 46.9 µM (≈ 16 µg/mL); in test [2], 46.9 µM (≈ 16 µg/mL); in test [3], 188 µM (≈ 64.2 µg/mL).

In the case of `O=C1NC(c2c[nH]c3ccc(I)cc23)Nc2ccccc21` (stereo not drawn), the MIC90 in test [1] worked out at 5.2 µM (≈ 2.02 µg/mL); in test [2], 10.3 µM (≈ 4.01 µg/mL); in test [3] it was 20.7 µM (≈ 8.06 µg/mL). In test [4], the Ratio is >12.

`CC[C@@H](CO)NCCN[C@@H](CC)CO` [ETHAMBUTOL]: the MIC90 in test [3] came to 626 µM (≈ 128 µg/mL).

`NNC(=O)c1ccncc1` [ISONIAZID]: the values for the MIC90 in test [2] and in test [3] were 467 µM (≈ 64.1 µg/mL) and 117 µM (≈ 16 µg/mL), respectively.

In the case of `CO[C@H]1/C=C/O[C@@]2(C)Oc3c(C)c(O)c4c(O)c(c(/C=N/N5CCN(C)CC5)c(O)c4c3C2=O)NC(=O)/C(C)=C\C=C\[C@H](C)[C@H](O)[C@@H](C)[C@@H](O)[C@@H](C)[C@H](OC(C)=O)[C@@H]1C` [RIFAMPIN], the MIC90 in test [1] came out at 311 µM (≈ 256 µg/mL); in test [2], 0.07 µM (≈ 0.0576 µg/mL); in test [3], 38.9 µM (≈ 32 µg/mL).

These data come from ChEMBL document CHEMBL3425465, “Synthesis, antimalarial and antitubercular activities of meridianin derivatives” (Eur J Med Chem, 2015).
